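96-well plates; 48 h exposure; 5 concentrations. Endpoints by linear interpolation between flanking doses. Not reached: highest tested concentration assigned. At the GI50, growth is halved.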 Calls of active or inactive are those of the source. No stated cut-off is given here; in the data, active = GI50 up to about 1.1 µM and inactive = higher.
Assays:
Test in all cases: DTP human tumour cell line panel, 48 h
RPMI-8226 = tested on: RPMI-8226
RXF 393 = tested on: RXF 393
MDA-MB-231 = tested on: MDA-MB-231
M14 = tested on: M14
HOP-62 = tested on: HOP-62
SW-620 = tested on: SW-620
PC-3 = tested on: PC-3
SK-MEL-28 = tested on: SK-MEL-28
NCI-H23 = tested on: NCI-H23
OVCAR-3 = tested on: OVCAR-3
SK-OV-3 = tested on: SK-OV-3
KM12 = tested on: KM12
U-251 = tested on: U-251
SR = tested on: SR
SN12C = tested on: SN12C
BT-549 = tested on: BT-549
HT-29 = tested on: HT-29
TK-10 = tested on: TK-10
SNB-75 = tested on: SNB-75
SF-268 = tested on: SF-268

| Compound | GI50 (RPMI-8226) | GI50 (RXF 393) | GI50 (MDA-MB-231) | GI50 (M14) | GI50 (HOP-62) | GI50 (SW-620) | GI50 (PC-3) | GI50 (SK-MEL-28) | GI50 (NCI-H23) | GI50 (OVCAR-3) | GI50 (SK-OV-3) | GI50 (KM12) | GI50 (U-251) | GI50 (SR) | GI50 (SN12C) | GI50 (BT-549) | GI50 (HT-29) | GI50 (TK-10) | GI50 (SNB-75) | GI50 (SF-268) |
| --- | --- | --- | --- | --- | --- | --- | --- | --- | --- | --- | --- | --- | --- | --- | --- | --- | --- | --- | --- | --- |
| O=C(O)c1cc2ccc3ccccc3c2oc1=O | > 100 µM (inactive) | > 100 µM (inactive) | > 100 µM (inactive) | > 100 µM (inactive) | > 100 µM (inactive) | > 100 µM (inactive) | > 100 µM (inactive) | > 100 µM (inactive) | > 100 µM (inactive) | > 100 µM (inactive) | > 100 µM (inactive) | > 100 µM (inactive) | > 100 µM (inactive) | > 100 µM (inactive) | > 100 µM (inactive) | > 100 µM (inactive) | > 100 µM (inactive) | > 100 µM (inactive) | > 100 µM (inactive) | > 100 µM (inactive) |
| COC(=O)C(=O)C(C(=O)C(=O)Nc1cc(C)ccc1C)c1nc2ccccc2nc1O (stereo not given) | 19.6 µM (inactive) | 77.3 µM (inactive) | > 100 µM (inactive) | > 100 µM (inactive) | > 100 µM (inactive) | > 100 µM (inactive) | > 100 µM (inactive) | > 100 µM (inactive) | > 100 µM (inactive) | > 100 µM (inactive) | > 100 µM (inactive) | > 100 µM (inactive) | > 100 µM (inactive) | 30.3 µM (inactive) | > 100 µM (inactive) | > 100 µM (inactive) | > 100 µM (inactive) | > 100 µM (inactive) | > 100 µM (inactive) | > 100 µM (inactive) |
| Cc1nc(C)c(N2CCN(C(=O)NC(CCC(=O)O)C(=O)O)CC2)c(O)n1 (stereo not given) | > 100 µM (inactive) | > 100 µM (inactive) | > 100 µM (inactive) | > 100 µM (inactive) | > 100 µM (inactive) | > 100 µM (inactive) | > 100 µM (inactive) | > 100 µM (inactive) | > 100 µM (inactive) | > 100 µM (inactive) | > 100 µM (inactive) | > 100 µM (inactive) | > 100 µM (inactive) | > 100 µM (inactive) | > 100 µM (inactive) | > 100 µM (inactive) | > 100 µM (inactive) | > 100 µM (inactive) | < 0.01 µM (active) | > 100 µM (inactive) |
| CCn1c(SCc2nnc(Nc3ccccc3)s2)nc2ccccc2c1=O | 5.5 µM (inactive) | 4.04 µM (inactive) | 3.18 µM (inactive) | 10.4 µM (inactive) | 2.17 µM (inactive) | 16.8 µM (inactive) | 8.79 µM (inactive) | 16.4 µM (inactive) | 4.7 µM (inactive) | 5.19 µM (inactive) | 2.62 µM (inactive) | 2.38 µM (inactive) | 2.24 µM (inactive) | 23.7 µM (inactive) | 4.23 µM (inactive) | 5.24 µM (inactive) | 2.95 µM (inactive) | 3.45 µM (inactive) | 3.85 µM (inactive) | 3.98 µM (inactive) |
| O=C1Nc2ccccc2C1Cc1ccc([N+](=O)[O-])cc1 (stereo not given) | 34.8 µM (inactive) | > 100 µM (inactive) | 14 µM (inactive) | > 100 µM (inactive) | > 100 µM (inactive) | > 100 µM (inactive) | 74 µM (inactive) | > 100 µM (inactive) | > 100 µM (inactive) | > 100 µM (inactive) | > 100 µM (inactive) | 36.2 µM (inactive) | > 100 µM (inactive) | 19.4 µM (inactive) | > 100 µM (inactive) | > 100 µM (inactive) | > 100 µM (inactive) | > 100 µM (inactive) | > 100 µM (inactive) | > 100 µM (inactive) |
| CC(C)NC(=O)OCc1c(COC(=O)NC(C)C)c(-c2cc[n+](COC(=O)C3CC3)cc2)n2c1CCC2 | > 100 µM (inactive) | 50.1 µM (inactive) | > 100 µM (inactive) | > 100 µM (inactive) | > 100 µM (inactive) | > 100 µM (inactive) | > 100 µM (inactive) | > 100 µM (inactive) | > 100 µM (inactive) | > 100 µM (inactive) | > 100 µM (inactive) | > 100 µM (inactive) | > 100 µM (inactive) | > 100 µM (inactive) | > 100 µM (inactive) | > 100 µM (inactive) | > 100 µM (inactive) | > 100 µM (inactive) | > 100 µM (inactive) | > 100 µM (inactive) |
| Nc1ccc2c(c1)C(=O)N1CCC[C@H]1C(=O)N2 | > 100 µM (inactive) | > 100 µM (inactive) | > 100 µM (inactive) | > 100 µM (inactive) | > 100 µM (inactive) | > 100 µM (inactive) | > 100 µM (inactive) | > 100 µM (inactive) | > 100 µM (inactive) | > 100 µM (inactive) | > 100 µM (inactive) | > 100 µM (inactive) | > 100 µM (inactive) | > 100 µM (inactive) | > 100 µM (inactive) | > 100 µM (inactive) | > 100 µM (inactive) | > 100 µM (inactive) | > 100 µM (inactive) | > 100 µM (inactive) |
| CCC(C(=O)C(=O)C(CC)P1(=O)OC(C)(C)CN1C(C)(C)C)P1(=O)OC(C)(C)CN1C(C)(C)C (stereo not given) | 43.6 µM (inactive) | > 100 µM (inactive) | > 100 µM (inactive) | > 100 µM (inactive) | > 100 µM (inactive) | > 100 µM (inactive) | > 100 µM (inactive) | > 100 µM (inactive) | > 100 µM (inactive) | > 100 µM (inactive) | > 100 µM (inactive) | > 100 µM (inactive) | > 100 µM (inactive) | 60.4 µM (inactive) | > 100 µM (inactive) | > 100 µM (inactive) | > 100 µM (inactive) | > 100 µM (inactive) | 49.7 µM (inactive) | > 100 µM (inactive) |
| Cc1ccc(SC(=O)N2C(=S)N=C(NC3CCCCC3)C23CCCCC3)cc1 | > 100 µM (inactive) | 70 µM (inactive) | > 100 µM (inactive) | > 100 µM (inactive) | > 100 µM (inactive) | > 100 µM (inactive) | 44.6 µM (inactive) | > 100 µM (inactive) | > 100 µM (inactive) | 50.6 µM (inactive) | > 100 µM (inactive) | 69.7 µM (inactive) | 95.3 µM (inactive) | 57.7 µM (inactive) | > 100 µM (inactive) | 57.5 µM (inactive) | 57.9 µM (inactive) | 25.2 µM (inactive) | 57.9 µM (inactive) | > 100 µM (inactive) |
| N=C(N)NCCN1CCCCCc2ccccc21 | > 10 µM (inactive) | > 10 µM (inactive) | > 10 µM (inactive) | > 10 µM (inactive) | > 10 µM (inactive) | > 10 µM (inactive) | 7.26 µM (inactive) | > 10 µM (inactive) | > 10 µM (inactive) | > 10 µM (inactive) | > 10 µM (inactive) | > 10 µM (inactive) | > 10 µM (inactive) | > 10 µM (inactive) | > 10 µM (inactive) | 7.08 µM (inactive) | > 10 µM (inactive) | > 10 µM (inactive) | 3.48 µM (inactive) | 3.27 µM (inactive) |
| Cc1cn2c(/C=C3/C(=O)Nc4cccc(Cl)c43)c(Cl)nc2s1 | > 100 µM (inactive) | 25.4 µM (inactive) | 15.3 µM (inactive) | 34.7 µM (inactive) | 13.6 µM (inactive) | 3.18 µM (inactive) | > 100 µM (inactive) | 1.12 µM (inactive) | 25.8 µM (inactive) | 61.9 µM (inactive) | 27.7 µM (inactive) | > 100 µM (inactive) | 5.26 µM (inactive) | > 100 µM (inactive) | > 100 µM (inactive) | 22.3 µM (inactive) | > 100 µM (inactive) | 17.9 µM (inactive) | 14.2 µM (inactive) | 11.3 µM (inactive) |
| O=C(C(=O)n1ccc2ccccc21)c1c[nH]c2ccccc12 | > 10 µM (inactive) | > 10 µM (inactive) | > 10 µM (inactive) | > 10 µM (inactive) | > 10 µM (inactive) | > 10 µM (inactive) | > 10 µM (inactive) | > 10 µM (inactive) | > 10 µM (inactive) | > 10 µM (inactive) | > 10 µM (inactive) | > 10 µM (inactive) | > 10 µM (inactive) | > 10 µM (inactive) | > 10 µM (inactive) | > 10 µM (inactive) | > 10 µM (inactive) | > 10 µM (inactive) | > 10 µM (inactive) | > 10 µM (inactive) |
| Cc1ccc(N2C(N)=C(C#N)C(C#N)(C#N)C2c2ccccc2)cc1 (stereo not given) | 11.4 µM (inactive) | 6.64 µM (inactive) | 11.5 µM (inactive) | 12.3 µM (inactive) | 19.5 µM (inactive) | 4.32 µM (inactive) | 18.8 µM (inactive) | 10.1 µM (inactive) | 18.1 µM (inactive) | 13.7 µM (inactive) | 16.7 µM (inactive) | 17.2 µM (inactive) | 17.3 µM (inactive) | 8.65 µM (inactive) | 14.4 µM (inactive) | 10.2 µM (inactive) | 3.97 µM (inactive) | 14.4 µM (inactive) | 13.2 µM (inactive) | 24.9 µM (inactive) |
| Cc1cccc(-c2cc(O)c3cc(C)cnc3n2)c1 | 0.239 µM (active) | 0.229 µM (active) | 0.518 µM (active) | 0.0998 µM (active) | 0.373 µM (active) | 0.0475 µM (active) | 0.189 µM (active) | 1.63 µM (inactive) | 0.344 µM (active) | 0.143 µM (active) | 0.272 µM (active) | 0.0869 µM (active) | 0.147 µM (active) | 0.0368 µM (active) | 0.571 µM (active) | 0.292 µM (active) | 0.15 µM (active) | 5.52 µM (inactive) | 0.157 µM (active) | 0.724 µM (active) |

From ChEMBL document CHEMBL1201862, “PubChem BioAssay data set” (2004)
